Source: patent publication US20250230138A1, “COMPOUNDS HAVING A T-STRUCTURE FORMED BY AT LEAST FOUR CYCLES FOR USE IN THE TREATMENT OF CANCER AND OTHER INDICATIONS” (TheRas, Inc., priority 2022, published 2025)
pIC50: −log10 of the molar value. Read-outs that look alike come from different tables or passages of the source.

Assays:
pAKT in BT474 cells = test: Cell-based pAKT HTRF assay in BT474 cells; details: BT474 cells, 4 hr incubation, Compounds 10-999, read-out: pAKT inhibition IC50 in BT474 cells
Method in brief: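 pAKT was measured by HTRF after a 4 hr compound exposure in BT474 cells (DMEM, 10% FBS, 0.25% DMSO), using 9 concentrations from 3 μM in 3-fold steps. Cell lysates were incubated with the Eu cryptate/d2 antibody pair at room temperature for 4 to 24 h. The plate was then read at 320 nm excitation and 615 nm emission.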

[1] = target: Cys242 in human PIK3CA (157-299) (Homo sapiens (Human), UniProt P42336); test: Covalent modification assay using MALDI-TOF MS; format: biochemical; details: 4 h reaction time point; 3.33 μM protein target, 1:7.5 protein to compound ratio (compounds 1-852)
Method in brief: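 PIK3CA (157-299), 3.33 or 1 μM in 20 mM HEPES, 150 mM NaCl, 2 mM MgCl2, pH 7.3, was incubated with compound at room temperature in the dark for 15 min, 30 min, 2 h or 4 h. Linear MALDI-TOF read-out; % modification = adduct peak height over summed heights of all protein species.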

Chain of Cys242 in human PIK3CA (157-299) (P42336 157-299): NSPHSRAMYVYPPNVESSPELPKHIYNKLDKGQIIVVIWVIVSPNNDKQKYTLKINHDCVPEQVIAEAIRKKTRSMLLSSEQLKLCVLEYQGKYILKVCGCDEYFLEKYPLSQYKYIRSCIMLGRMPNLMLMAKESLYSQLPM

pIC50 (pAKT in BT474 cells) | pIC50 (pAKT in BT474 cells; Homo sapiens, BT-474) | Structure (SMILES) | % of modification [1]
> 7.00 | – | C=CC(=O)N1CCc2c(nc(-c3nc(-c4ccc5c(c4)CCNC5)c4ccsc4c3-c3ccc(F)cc3OCCOC)n2C)C1 [Compound 99] | A (percent of modification of PIK3CA protein ≥75%)
6.00 to 7.00 | – | C=CC(=O)N1CCc2nc(-c3nc(-c4ccc5c(c4)CCNC5)c4ccsc4c3-c3ccc(F)cc3OCCOC)n(C)c2C1 [Compound 100] | A (percent of modification of PIK3CA protein ≥75%)
– | > 7.00 | C=CC(=O)N1CCn2cc(-c3nc(-c4ccc5c(c4)CCNC5)c4ccsc4c3-c3ccc(F)cc3OCCOC)nc2C1 [Compound 101, 1-[2-[7-[4-fluoro-2-(2-methoxyethoxy)phenyl]-4-(1,2,3,4-tetrahydroisoquinolin-6-yl)thieno[3,2-c]pyridin-6-yl]-6,8-dihydro-5H-imidazo[1,2-a]pyrazin-7-yl]prop-2-en-1-one] | A (percent of modification of PIK3CA protein ≥75%)
6.00 to 7.00 | – | C=CC(=O)N1CC(n2cc(-c3nc(-c4ccc5c(c4)CCNCC5)c4ccsc4c3-c3ccc(F)cc3OC)cn2)C1 [Compound 102] | A (percent of modification of PIK3CA protein ≥75%)
6.00 to 7.00 | – | C=CC(=O)N1CCc2ncc(-c3nc(-c4ccc5c(c4)CCNCC5)c4ccsc4c3-c3ccc(F)cc3OC)cc2C1 [Compound 103] | A (percent of modification of PIK3CA protein ≥75%)
– | 6.00 to 7.00 | C=CC(=O)N1CC(n2cc(-c3nc(-c4ccc5c(c4)CCNC5)c4ncsc4c3-c3ccc(F)cc3OC)cn2)C1 [Compound 104, 1-[3-[4-[7-(4-fluoro-2-methoxy-phenyl)-4-(1,2,3,4-tetrahydroisoquinolin-6-yl)thiazolo[4,5-c]pyridin-6-yl]pyrazol-1-yl]azetidin-1-yl]prop-2-en-1-one] | A (percent of modification of PIK3CA protein ≥75%)
– | > 7.00 | C=CC(=O)N1CCn2nc(-c3nc(-c4ccc5c(c4)CCNC5)c4ccsc4c3-c3ccc(F)cc3OCCOC)nc2C1 [Compound 105, 1-[2-[7-[4-fluoro-2-(2-methoxyethoxy)phenyl]-4-(1,2,3,4-tetrahydroisoquinolin-6-yl)thieno[3,2-c]pyridin-6-yl]-6,8-dihydro-5H-[1,2,4]triazolo[1,5-a]pyrazin-7-yl]prop-2-en-1-one] | A (percent of modification of PIK3CA protein ≥75%)
< 5.52 | – | C=CC(=O)N1CC(n2cc(-c3nc(N4CC5(CCNCC5)CC4=O)c4ccsc4c3-c3ccc(F)cc3OCCOC)cn2)C1 [Compound 106] | C (25%≤percent of modification <50%)
> 7.00 | – | C=CC(=O)N1CCc2nc(-c3nc(-c4ccc5c(c4)CCN(C)C5)c4ccsc4c3-c3ccc(F)cc3OCCOC)sc2C1 [Compound 107] | A (percent of modification of PIK3CA protein ≥75%)
6.00 to 7.00 | – | C=CC(=O)N1CC(n2cc(-c3nc(-c4ccc5c(c4)CCNC5)c4ccsc4c3-c3ccc(F)cc3F)cn2)C1 [Compound 108] | A (percent of modification of PIK3CA protein ≥75%)
6.00 to 7.00 | – | C=CC(=O)N1CC(n2cc(-c3nc(-c4ccc5c(c4)CCNC5)c4c(c3-c3ccc(F)cc3OCCOC)CCC4)cn2)C1 [Compound 109] | A (percent of modification of PIK3CA protein ≥75%)
– | 6.00 to 7.00 | C=CC(=O)N1CC(n2cc(-c3nc(-c4ccc5c(c4)CCNC5)c4ccsc4c3-c3ccc(F)cc3OC)ccc2=O)C1 [Compound 110, 5-[7-(4-fluoro-2-methoxy-phenyl)-4-(1,2,3,4-tetrahydroisoquinolin-6-yl)thieno[3,2-c]pyridin-6-yl]-1-(1-prop-2-enoylazetidin-3-yl)pyridin-2-one] | A (percent of modification of PIK3CA protein ≥75%)
> 7.00 | – | C=CC(=O)N1CCc2ncc(-c3nc(-c4ccc5c(c4)CS(=O)(=O)C5)c4ccsc4c3-c3ccc(F)cc3OCCOC)cc2C1 [Compound 111] | A (percent of modification of PIK3CA protein ≥75%)
– | 6.00 to 7.00 | C=CC(=O)N1CCc2oc(-c3nc(-c4ccc5c(c4)CCNC5)c4ccsc4c3-c3ccc(F)cc3OC)nc2C1 [Compound 112, 1-[2-[7-(4-fluoro-2-methoxy-phenyl)-4-(1,2,3,4-tetrahydroisoquinolin-6-yl)thieno[3,2-c]pyridin-6-yl]-6,7-dihydro-4H-oxazolo[4,5-c]pyridin-5-yl]prop-2-en-1-one] | A (percent of modification of PIK3CA protein ≥75%)
< 5.52 | – | CC#CC(=O)N1CC(n2cc(-c3nc(-c4ccc5c(c4)CCNC5)c4ccsc4c3-c3ccc(F)cc3OC)cn2)C1 [Compound 113] | D (percent of modification <25%)
5.52 to 6.00 | – | C=C(F)C(=O)N1CC(n2cc(-c3nc(-c4ccc5c(c4)CCNC5)c4ccsc4c3-c3ccc(F)cc3OC)cn2)C1 [Compound 114] | A (percent of modification of PIK3CA protein ≥75%)

pIC50 (pAKT in BT474 cells) | pIC50 (pAKT in BT474 cells; Homo sapiens, BT-474) | Structure (SMILES) | % of modification [1]
– | > 7.00 | C=CC(=O)N1CCn2nc(-c3nc(-c4ccc5c(c4)CCNC5)c4ccsc4c3-c3ccc(F)cc3OCCOC)cc2C1 [Compound 115, 1-[2-[7-[4-fluoro-2-(2-methoxyethoxy)phenyl]-4-(1,2,3,4-tetrahydroisoquinolin-6-yl)thieno[3,2-c]pyridin-6-yl]-6,7-dihydro-4H-pyrazolo[1,5-a]pyrazin-5-yl]prop-2-en-1-one] | A (percent of modification of PIK3CA protein ≥75%)
> 7.00 | – | C=CC(=O)N1CCc2nc(-c3nc(-c4ccc5c(c4)CS(=O)(=O)C5)c4ccsc4c3-c3ccc(F)cc3OCCOC)sc2C1 [Compound 116] | A (percent of modification of PIK3CA protein ≥75%)
> 7.00 | – | C=CC(=O)N1CCc2ncc(-c3nc(-c4cnc5c(c4)CNC(=O)C5)c4ccsc4c3-c3ccc(F)cc3OCCOC)cc2C1 [Compound 117] | A (percent of modification of PIK3CA protein ≥75%)
– | > 7.00 | C=CC(=O)N1CCc2nc(-c3nc(-c4ccc5c(c4)CCNC5=O)c4ccsc4c3-c3ccc(F)cc3OCCOC)sc2C1 [Compound 118, 6-[7-[4-fluoro-2-(2-methoxyethoxy)phenyl]-6-(5-prop-2-enoyl-6,7-dihydro-4H-thiazolo[5,4-c]pyridin-2-yl)thieno[3,2-c]pyridin-4-yl]-3,4-dihydro-2H-isoquinolin-1-one] | A (percent of modification of PIK3CA protein ≥75%)
> 7.00 | – | C=CC(=O)N1CCc2nc(-c3nc(-c4cnc5c(c4)CNC(=O)C5)c4ccsc4c3-c3ccc(F)cc3OCCOC)sc2C1 [Compound 119] | A (percent of modification of PIK3CA protein ≥75%)
6.00 to 7.00 | – | C=CC(=O)N1CC(n2cc(-c3nc(-c4ccc5c(c4)CCNC5)c4ccsc4c3-c3ccc(F)cc3C(F)F)cn2)C1 [Compound 120] | A (percent of modification of PIK3CA protein ≥75%)
> 7.00 | – | C=CC(=O)N1CCc2nc(-c3nc(-c4ccc5c(c4)CCNCC5)c4ccsc4c3-c3ccc(F)cc3OCCOC)sc2C1 [Compound 121] | A (percent of modification of PIK3CA protein ≥75%)
6.00 to 7.00 | – | C=CC(=O)N1CC(n2cc(-c3nc(N4CCC5(CC4)COC5)c4ccsc4c3-c3ccc(F)cc3OCCOC)cn2)C1 [Compound 122] | A (percent of modification of PIK3CA protein ≥75%)
6.00 to 7.00 | – | C=CC(=O)N1CC(n2cc(-c3nc(N4CCN5CCCC5C4)c4ccsc4c3-c3ccc(F)cc3OCCOC)cn2)C1 (stereo not shown) [Compound 123] | A (percent of modification of PIK3CA protein ≥75%)
> 7.00 | – | C=CC(=O)N1CCc2nc(-c3nc(-c4cnn(CC(F)F)c4)c4ccsc4c3-c3ccc(F)cc3OCCOC)sc2C1 [Compound 125] | A (percent of modification of PIK3CA protein ≥75%)
> 7.00 | – | C=CC(=O)N1CCc2nc(-c3nc(-c4cnn(CCO)c4)c4ccsc4c3-c3ccc(F)cc3OCCOC)sc2C1 [Compound 126] | A (percent of modification of PIK3CA protein ≥75%)
5.52 to 6.00 | – | CC#CC(=O)N1CCc2nc(-c3nc(-c4ccc5c(c4)CCNC5)c4ccsc4c3-c3ccc(F)cc3OCCOC)sc2C1 [Compound 127] | D (percent of modification <25%)
> 7.00 | – | C=CC(=O)N1CCc2nc(-c3nc(-c4ccc5c(c4)CCN(CCO)C5)c4ccsc4c3-c3ccc(F)cc3OCCOC)sc2C1 [Compound 128] | A (percent of modification of PIK3CA protein ≥75%)
< 5.52 | – | C/C=C/C(=O)N1CC(n2cc(-c3nc(-c4ccc5c(c4)CCNC5)c4ccsc4c3-c3ccc(F)cc3OC)cn2)C1 [Compound 129] | D (percent of modification <25%)
> 7.00 | – | C=CC(=O)N1CCc2nc(-c3nc(-c4ccc5c(c4)CCNC5)c4ccsc4c3-c3ccc(F)cc3OCCO)sc2C1 [Compound 130] | A (percent of modification of PIK3CA protein ≥75%)
> 7.00 | – | C=CC(=O)N1CCc2nc(-c3nc(-c4ccc(=O)[nH]c4)c4ccsc4c3-c3ccc(F)cc3OCCOC)sc2C1 [Compound 131] | A (percent of modification of PIK3CA protein ≥75%)
